According to US20130053310A1 (NOVO NORDISK A/S, priority 2010, published 2013):
Peptide text beside a SMILES is read from it.

Key:
[1] = Assay (II) ThT fibrillation assay for physical stability; assay type: physicochemical; conditions: ThT fibrillation assay, pH 4.0, 250 μM, 10 mM glycylglycine, 45 hours at 37° C., shaking 960 rpm
Source text: This has traditionally been measured by visual inspection of the sample. However, that kind of measurement is very subjective and depending on the observer. Therefore, the application of a small molecule indicator probe is much more advantageous.
Here, F is the ThT fluorescence at the time t. The constant t0 is the time needed to reach 50% of maximum fluorescence.
Few of those intermediates nucleate to form a template onto which further intermediates may assembly and the fibrillation proceeds. The lag-time corresponds to the interval in which the critical mass of nucleus is built up and the apparent rate constant is the rate with which the fibril itself is formed.
Samples were prepared freshly before each assay. […] The pH of the sample was adjusted to the desired value using appropriate amounts of concentrated NaOH and HCl. Thioflavin T was added to the samples from a stock solution in H2O to a final concentration of 1 μM.
The plate was sealed with Scotch Pad (Qiagen).
Each run was initiated by incubating the plate at the assay temperature for 10 min. The plate was measured every 20 minutes for a desired period of time. Between each measurement, the plate was shaken and heated as described.
The supernatant was filtered through a 0.22 μm filter and an aliquot was transferred to a HPLC vial.
The measurement points were saved in Microsoft Excel format for further processing and curve drawing and fitting was performed using GraphPad Prism.
The data set may be fitted to Eq. (1).

glucagon receptor = target: T1, glucagon receptor (Homo sapiens, UniProt P47871); experiment: Assay (I) Glucagon activity: cAMP biosensor (ACTOne) FLIPR assay in HEK-293 cells with cloned glucagon receptor; assay type: cell-based
T1 construct: expressed in transfected cells
Method: The cells (14000 per well) were incubated (37° C., 5% CO2) overnight in 384-well plates. Next day the cells were loaded with a calcium responsive dye that only distributed into the cytoplasm. Probenecid, an inhibitor of the organic anion transporter, was added to prevent the dye from leaving the cell. A PDE inhibitor was added to prevent formatted cAMP from being degraded. […] End point data were collected after 6 minutes. An increase in intracellular cAMP was proportional to an increased in calcium concentrations in the cytoplasm. When calcium was bound the dry a fluorescence signal was generated. EC50-values were calculated in Prism5.

T1 sequence (P47871 26-477): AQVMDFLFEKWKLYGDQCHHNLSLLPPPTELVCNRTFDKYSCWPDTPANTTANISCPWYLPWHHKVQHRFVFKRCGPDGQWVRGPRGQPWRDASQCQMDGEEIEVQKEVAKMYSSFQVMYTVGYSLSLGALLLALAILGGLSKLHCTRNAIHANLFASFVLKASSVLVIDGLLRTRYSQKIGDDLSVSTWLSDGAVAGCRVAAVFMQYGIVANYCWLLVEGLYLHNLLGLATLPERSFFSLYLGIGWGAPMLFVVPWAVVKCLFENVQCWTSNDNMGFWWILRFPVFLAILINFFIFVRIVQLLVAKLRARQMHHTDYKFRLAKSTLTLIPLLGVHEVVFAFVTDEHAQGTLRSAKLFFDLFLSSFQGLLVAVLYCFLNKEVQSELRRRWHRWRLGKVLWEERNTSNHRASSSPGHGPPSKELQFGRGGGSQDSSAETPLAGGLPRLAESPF

SMILES	Assay (II) (pH 4.0) Lag time (hours) [1] [hours]	EC50 (glucagon receptor) [nM]
CC(C)C[C@H](NC(=O)[C@H](Cc1ccc(O)cc1)NC(=O)[C@H](CCCCN)NC(=O)[C@H](CO)NC(=O)[C@H](Cc1ccc(O)cc1)NC(=O)[C@H](CC(=O)O)NC(=O)[C@H](CO)NC(=O)[C@@H](NC(=O)[C@H](Cc1ccccc1)NC(=O)[C@@H](NC(=O)CNC(=O)[C@H](CCC(N)=O)NC(=O)[C@H](CO)NC(=O)[C@@H](N)Cc1c[nH]cn1)[C@@H](C)O)[C@@H](C)O)C(=O)N[C@@H](CCC(=O)O)C(=O)N[C@@H](CO)C(=O)N[C@@H](CCCNC(=N)N)C(=O)N[C@@H](CCCNC(=N)N)C(=O)N[C@@H](C)C(=O)N[C@@H](CCC(N)=O)C(=O)N[C@@H](CCC(=O)O)C(=O)N[C@@H](Cc1ccccc1)C(=O)N[C@H](C(=O)N[C@@H](CCC(N)=O)C(=O)N[C@@H](CCCNC(=N)N)C(=O)N[C@@H](CC(C)C)C(=O)N[C@@H](CC(C)C)C(=O)N[C@@H](CC(N)=O)C(=O)N[C@H](C(=O)O)[C@@H](C)O)C(C)C [Example 10, [Glu^15, Glu^21, Arg^25, Leu^27]-Glucagon] (H-HSQGTFTSDYSKYLESRRAQEFVQRLLNT-OH)	> 45	0.266
CC(C)C[C@H](NC(=O)[C@H](Cc1ccc(O)cc1)NC(=O)[C@H](CCCCN)NC(=O)[C@H](CO)NC(=O)[C@H](Cc1ccc(O)cc1)NC(=O)[C@H](CC(=O)O)NC(=O)[C@H](CO)NC(=O)[C@@H](NC(=O)[C@H](Cc1ccccc1)NC(=O)[C@@H](NC(=O)CNC(=O)[C@H](CCC(N)=O)NC(=O)[C@H](CO)NC(=O)[C@@H](N)Cc1c[nH]cn1)[C@@H](C)O)[C@@H](C)O)C(=O)N[C@@H](CC(=O)O)C(=O)N[C@@H](CO)C(=O)N[C@@H](CCCNC(=N)N)C(=O)N[C@@H](CCCNC(=N)N)C(=O)N[C@@H](C)C(=O)N[C@@H](CCC(N)=O)C(=O)N[C@@H](CC(=O)O)C(=O)N[C@@H](Cc1ccccc1)C(=O)N[C@H](C(=O)N[C@@H](CCC(N)=O)C(=O)N[C@@H](CCCNC(=N)N)C(=O)N[C@@H](CC(C)C)C(=O)N[C@@H](CC(C)C)C(=O)N[C@@H](CCC(=O)O)C(=O)N[C@H](C(=O)O)[C@@H](C)O)C(C)C [Example 11, [Arg^25, Leu^27, Glu^28]-Glucagon]	> 45	0.037
